# According to US5385891A, “Polysulfate of β-cyclodextrin derivative and process for preparing the same” (Tanabe Seiyaku Co., Ltd., priority 1991, dated 1995):
# Structures can show the parent of a compound that is named as a salt.
# System: HIV in MT-4 cells
# Test: HIV Proliferation Inhibitory Activity (MT-4 cells, 10% FCS)
# Format: cell-based, HIV (a culture supernatant of TALL-1/LAV-1)
# Conditions: Human immunodeficiency virus 1, MT4, 120 h, read-out: HIV proliferation inhibitory activity, 100% inhibition concentration
# Protocol: It is known that when MT-4 cells which are sustaining infectious cell lines of human T-cell Leukemia virus I type (HTLV-I) are infected with HIV, HIV proliferates rapidly and the MT-4 cells are killed in 5 to 6 days due to the cellular damage. Therefore, HIV proliferation inhibitory activity of a sample can be evaluated by examining the number of viable cells of the MT-4 cells infected with HIV.
# MT-4 cells were infected with HIV (a culture supernatant of TALL-1/LAV-1) at 37° C. for one hour so that TCID50 (median tissue culture infectious dose)/cell might be 0.001, followed by washing with the medium. The infected MT-4 cells were then suspended at a concentration of 1×10^5 cell/ml in RPMI-1640 media (containing 10% of FCS (fetal calf serum)) containing samples of various concentrations, respectively. Each of the thus obtained cell suspension was introduced in a flat bottom culture plate in an amount of 200 μl/well and was incubated at 37° C. in the presence of 5% carbon dioxide for 5 days. After incubation, the number of viable cells in the cell suspension was counted by the Tripan-Blue Staining Method. The HIV proliferation inhibitory activity of a sample was evaluated in terms of the concentration of the sample which suppresses by 100% the infectiousness and the cell modification activity of HIV in MT-4 cells.
row,SMILES,IC100
1,O=S(=O)(O)OC[C@H]1O[C@@H]2O[C@H]3[C@H](OS(=O)(=O)O)[C@@H](OCc4ccc(F)cc4)[C@@H](O[C@H]4[C@H](OS(=O)(=O)O)[C@@H](OCc5ccc(F)cc5)[C@@H](O[C@H]5[C@H](OS(=O)(=O)O)[C@@H](OCc6ccc(F)cc6)[C@@H](O[C@H]6[C@H](OS(=O)(=O)O)[C@@H](OCc7ccc(F)cc7)[C@@H](O[C@H]7[C@H](OS(=O)(=O)O)[C@@H](OCc8ccc(F)cc8)[C@@H](O[C@H]8[C@H](OS(=O)(=O)O)[C@@H](OCc9ccc(F)cc9)[C@@H](O[C@H]1[C@H](OS(=O)(=O)O)[C@H]2OCc1ccc(F)cc1)O[C@@H]8COS(=O)(=O)O)O[C@@H]7COS(=O)(=O)O)O[C@@H]6COS(=O)(=O)O)O[C@@H]5COS(=O)(=O)O)O[C@@H]4COS(=O)(=O)O)O[C@@H]3COS(=O)(=O)O [Example 6],3.9 µg/mL
2,"O=S(=O)(O)OC[C@H]1O[C@@H]2O[C@H]3[C@H](OS(=O)(=O)O)[C@@H](OCc4ccccc4)[C@@H](O[C@H]4[C@H](OS(=O)(=O)O)[C@@H](OCc5ccccc5)[C@@H](O[C@H]5[C@H](OS(=O)(=O)O)[C@@H](OCc6ccccc6)[C@@H](O[C@H]6[C@H](OS(=O)(=O)O)[C@@H](OCc7ccccc7)[C@@H](O[C@H]7[C@H](OS(=O)(=O)O)[C@@H](OCc8ccccc8)[C@@H](O[C@H]8[C@H](OS(=O)(=O)O)[C@@H](OCc9ccccc9)[C@@H](O[C@H]1[C@H](OS(=O)(=O)O)[C@H]2OCc1ccccc1)O[C@@H]8COS(=O)(=O)O)O[C@@H]7COS(=O)(=O)O)O[C@@H]6COS(=O)(=O)O)O[C@@H]5COS(=O)(=O)O)O[C@@H]4COS(=O)(=O)O)O[C@@H]3COS(=O)(=O)O [Example 1, sodium salt of heptakis(2-O-benzyl)-β-cyclodextrin polysulfate]",0.98 µg/mL
